Measured values: PubChem BioAssay (NCI)
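Each compound was tested at five concentrations against cells in 96-well plates for 48 hours. TGI denotes the concentration required for complete inhibition of growth.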

Legend:
Assay in all cases: inhibition of tumour cell growth, NCI panel, 48 h
SK-MEL-2 melanoma = test system: SK-MEL-2 melanoma
CAKI-1 renal = test system: CAKI-1 renal
U251 CNS = test system: U251 CNS
BT-549 breast = test system: BT-549 breast
HOP-62 NSCLC = test system: HOP-62 NSCLC
SK-OV-3 ovarian = test system: SK-OV-3 ovarian
HCT-15 colon = test system: HCT-15 colon
T-47D breast = test system: T-47D breast
OVCAR-5 ovarian = test system: OVCAR-5 ovarian
EKVX NSCLC = test system: EKVX NSCLC
MDA-N = test system: MDA-N
LOX IMVI melanoma = test system: LOX IMVI melanoma
UACC-62 melanoma = test system: UACC-62 melanoma
HCT-116 colon = test system: HCT-116 colon
MALME-3M melanoma = test system: MALME-3M melanoma
A498 renal = test system: A498 renal
MDA-MB-231 breast = test system: MDA-MB-231 breast
SF-539 CNS = test system: SF-539 CNS
M19-MEL melanoma = test system: M19-MEL melanoma
KM20L2 colon = test system: KM20L2 colon

| Compound | TGI (SK-MEL-2 melanoma) [µM] | TGI (CAKI-1 renal) [µM] | TGI (U251 CNS) [µM] | TGI (BT-549 breast) [µM] | TGI (HOP-62 NSCLC) [µM] | TGI (SK-OV-3 ovarian) [µM] | TGI (HCT-15 colon) [µM] | TGI (T-47D breast) [µM] | TGI (OVCAR-5 ovarian) [µM] | TGI (EKVX NSCLC) [µM] | TGI (MDA-N) [µM] | TGI (LOX IMVI melanoma) [µM] | TGI (UACC-62 melanoma) [µM] | TGI (HCT-116 colon) [µM] | TGI (MALME-3M melanoma) [µM] | TGI (A498 renal) [µM] | TGI (MDA-MB-231 breast) [µM] | TGI (SF-539 CNS) [µM] | TGI (M19-MEL melanoma) [µM] | TGI (KM20L2 colon) [µM] |
| --- | --- | --- | --- | --- | --- | --- | --- | --- | --- | --- | --- | --- | --- | --- | --- | --- | --- | --- | --- | --- |
| CN(C)CCN(C(=Nc1ccccc1)N1CCCC1)c1ccccc1 | > 100 | > 100 | > 100 | > 100 | > 100 | > 100 | > 100 | > 100 | > 100 | > 100 | 86.6 | > 100 | > 100 | > 100 | > 100 | – | – | – | – | – |
| Cc1ccc(S(=O)(=O)NCCCSCCSCCCN)cc1 | – | – | > 100 | – | – | > 100 | > 100 | > 100 | – | – | > 100 | > 100 | – | > 100 | – | > 100 | > 100 | – | – | – |
| COc1cc(C(=O)Nc2cc(C(N)=O)cc(OC)c2OC)cc(NC(=O)/C=C/c2ccccc2)c1OC | – | – | – | > 100 | – | > 100 | > 100 | – | > 100 | > 100 | > 100 | – | 35.6 | – | 64 | – | 57.5 | > 100 | – | – |
| COC(=O)C1=C(C)N2CCOC2CC1c1ccccc1 (stereo not drawn) | > 100 | > 100 | – | – | > 100 | – | – | – | – | > 100 | – | – | > 100 | > 100 | – | – | – | > 100 | > 100 | > 100 |
| CN1C(=O)C2C=C3CCCCC3=CC2N(C)C1=O (stereo not drawn) | > 100 | > 100 | > 100 | > 100 | > 100 | > 100 | > 100 | > 100 | > 100 | > 100 | > 100 | > 100 | > 100 | > 100 | > 100 | > 100 | > 100 | > 100 | – | – |
| O=C(N/N=C\C(F)(F)F)c1ccncc1 | > 100 | > 100 | > 100 | > 100 | > 100 | > 100 | > 100 | – | > 100 | – | – | > 100 | > 100 | – | > 100 | > 100 | – | – | – | – |
| COc1cc2oc(=O)ccc2cc1CC=C(C)C | > 100 | > 100 | > 100 | 81 | > 100 | – | – | > 100 | > 100 | > 100 | > 100 | > 100 | – | > 100 | > 100 | > 100 | > 100 | > 100 | – | – |
